{
  "source": "patent US4959363A",
  "about": "“Quinolonecarboxamide compounds, their preparation and use as antivirals” (Sterling Drug Inc., priority 1989, dated 1990)",
  "key": {"[1]": {"tested_on": "Vero (African Green Monkey Kidney) cells", "assay": "In vitro maximum tolerated dose (MTL), Vero cells", "assay_type": "cell-based"}, "[2]": {"parameters": "species or system albino mice", "details": "mouse"}, "[3]": {"assay": "In vitro maximum tolerated dose (MTL), Vero cells", "assay_type": "cell-based, African Green Monkey", "details": "monkey, vero cells, In Vitro"}, "[4]": {"tested_on": "herpes simplex virus", "assay": "In Vivo - Intravaginal Herpes Virus Infection in Mice", "parameters": "species or system albino mice", "details": "Mus musculus, 336 h, oral or intraperitoneal, b.i.d. 5 days, NA = Not active at dose levels tested, read-out: In Vivo MED (Minimum effective dose)", "experimental": "In Vivo - Intravaginal Herpes Virus Infection in Mice\nApproximately 1 hr. prior to infection, the vaginas of 15 gm albino mice were swabbed with cotton saturated with 0.1 N NaOH to remove vaginal secretions and to irritate the vaginal mucosa slightly. At the proper time, 0.05 ml of an appropriate dose of herpes simplex virus was placed deep in the vagina. Starting 2.5 hrs. prior to infection, the mice were medicated either orally or intraperitoneally. Medication was continued daily for a total of 5 days on a b.i.d. regimen. The test was terminated after 14 days. A comparison of the number of surviving mice and/or extension of survival was made at the end of the test. The criterion for activity was a statistically significant extension of the average survival time of the test group over that of the control mice in two experiments."}},
  "data": [
    {"compound": "1,4-Dihydro-1-(4-fluorophenyl)-7-(3-methyl-5-thiazolyl)-4-oxo-3-quinolinecarboxamide [Example 37d]", "values": [
      {"measurement": "In Vitro MTL (Maximum tolerated dose)", "setting": "[1]; monkey, vero cells, 72 h", "value": "> 100"},
      {"measurement": "In Vivo MTL (Maximum tolerated dose)", "setting": "[2]", "value": "> 100"}
    ]},
    {"compound": "NC(=O)c1cn(-c2ccncc2)c2cc(-c3ccncc3)ccc2c1=O", "note": "[Example 10, 1,4-Dihydro-4-oxo-1,7-di(4-pyridinyl)-3-quinolinecarboxamide]", "values": [
      {"measurement": "MNTC at 72 h", "setting": "[3]", "value": "> 200", "unit": "µg/mL"},
      {"measurement": "In Vivo MTL (Maximum tolerated dose)", "setting": "[2]", "value": 75},
      {"measurement": "minimal effective dose", "setting": "[4]", "value": "50 to 75", "unit": "mg/kg/day"}
    ]},
    {"compound": "NC(=O)c1cn(-c2ccc(Cl)c(Cl)c2)c2cc(-c3ccncc3)ccc2c1=O", "note": "[Example 14, 1-(3,4-Dichlorophenyl)-1,4-dihydro-4-oxo-7-(4-pyridinyl)-3-quinolinecarboxamide]", "values": [
      {"measurement": "MNTC at 72 h", "setting": "[3]", "value": "> 12.5", "unit": "µg/mL"},
      {"measurement": "In Vivo MTL (Maximum tolerated dose)", "setting": "[2]", "value": 100},
      {"measurement": "minimal effective dose", "setting": "[4]", "value": 50, "unit": "mg/kg/day"}
    ]},
    {"compound": "CCn1cc(C(=O)NC)c(=O)c2ccc(-c3ccncc3)cc21", "note": "[Example 28, 1-Ethyl-1,4-dihydro-N-methyl-4-oxo-7-(4-pyridinyl)-3quinolinecarboxamide]", "values": [
      {"measurement": "MNTC at 72 h", "setting": "[3]", "value": "> 25", "unit": "µg/mL"},
      {"measurement": "In Vivo MTL (Maximum tolerated dose)", "setting": "[2]", "value": 50},
      {"measurement": "minimal effective dose", "setting": "[4]", "value": 50, "unit": "mg/kg/day"}
    ]},
    {"compound": "NC(=O)c1cn(-c2ccc(Br)cc2)c2cc(-c3ccncc3)ccc2c1=O", "note": "[Example 31, 1-(4-Bromophenyl)-1,4-dihydro-7-(4-pyridinyl)-4-oxo-3quinolinecarboxamide]", "values": [
      {"measurement": "MNTC at 72 h", "setting": "[3]", "value": "> 12.5", "unit": "µg/mL"},
      {"measurement": "In Vivo MTL (Maximum tolerated dose)", "setting": "[2]", "value": 50},
      {"measurement": "minimal effective dose", "setting": "[4]", "value": 50, "unit": "mg/kg/day"}
    ]},
    {"compound": "CCn1c(=O)c(C(N)=O)c(O)c2ccc(-c3ccncc3)cc21", "note": "[Example 38c, 1-Ethyl-1,2-dihydro-4-hydroxy-2-oxo-7-(4-pyridinyl)-3quinolinecarboxamide]", "values": [
      {"measurement": "MNTC at 72 h", "setting": "[3]", "value": "> 12.5", "unit": "µg/mL"},
      {"measurement": "In Vivo MTL (Maximum tolerated dose)", "setting": "[2]", "value": 100},
      {"measurement": "minimal effective dose", "setting": "[4]", "value": "100 to 200", "unit": "mg/kg/day"}
    ]},
    {"compound": "Cn1c(O)c(C(N)=O)c(=O)c2ccc(-c3ccncc3)cc21", "note": "[Example 39b, 1,4-Dihydro-2-hydroxy-1-methyl-4-oxo-7-(4-pyridinyl)3-quinolinecarboxamide]", "values": [
      {"measurement": "MNTC at 72 h", "setting": "[3]", "value": 3.1, "unit": "µg/mL"},
      {"measurement": "In Vivo MTL (Maximum tolerated dose)", "setting": "[2]", "value": 150},
      {"measurement": "minimal effective dose", "setting": "[4]", "value": "150 to 200", "unit": "mg/kg/day"}
    ]},
    {"compound": "NC(=O)c1c(N)n(-c2ccc(F)cc2)c2cc(-c3ccncc3)ccc2c1=O", "note": "[Example 41c, 2-Amino-1,4-dihydro-1-(4-fluorophenyl)-4-oxo-7-(4-pyriridinyl)-3-quinolinecarboxamide]", "values": [
      {"measurement": "MNTC at 72 h", "setting": "[3]", "value": "> 100", "unit": "µg/mL"},
      {"measurement": "In Vivo MTL (Maximum tolerated dose)", "setting": "[2]", "value": 100},
      {"measurement": "minimal effective dose", "setting": "[4]", "value": 50, "unit": "mg/kg/day"}
    ]},
    {"compound": "NC(=O)c1cn(-c2ccccc2)c2cc(-c3ccncc3)ccc2c1=O", "note": "[Example 45e, 1,4-Dihydro-4-oxo-1-phenyl-7-(4-pyridinyl)-3-quinolinecarboxamide]", "values": [
      {"measurement": "In Vitro MTL (Maximum tolerated dose)", "setting": "[1]; In Vitro, Vero cells, 4320 min", "value": "> 6.25"},
      {"measurement": "In Vivo MTL (Maximum tolerated dose)", "setting": "[2]", "value": 50},
      {"measurement": "minimal effective dose", "setting": "[4]", "value": 25, "unit": "mg/kg/day"}
    ]},
    {"compound": "NC(=O)c1cn(-c2cccc(F)c2)c2cc(-c3ccncc3)ccc2c1=O", "note": "[Example 46e, 1,4-Dihydro-1-(3-fluorophenyl)-4-oxo-7-(4-pyridinyl)3-quinolinecarboxamide]", "values": [
      {"measurement": "MNTC at 72 h", "setting": "[3]", "value": "> 6.25", "unit": "µg/mL"},
      {"measurement": "In Vivo MTL (Maximum tolerated dose)", "setting": "[2]", "value": 50},
      {"measurement": "minimal effective dose", "setting": "[4]", "value": "25 to 50", "unit": "mg/kg/day"}
    ]}
  ]
}
